According to US11197965B2, “Method and system for the administration of a pulmonary surfactant by atomization” (CHIESI FARMACEUTICI S.p.A., priority 2013, dated 2021):

Details: in vivo
Method: Old piglets, weighing between 0.8-2.0 kg, were used.
The procedure was carried out as follows: piglets inhaled 10 mg of lidocaine and lidocaine gel was applied in the oropharynx just before the insertion of a Mayo oropharyngeal atomization cannula. The piglets were then laid on one side according to the randomization protocol, and correct positioning of the oropharyngeal cannula just above the larynx entrance was assessed by fiberbronchoscopy. Curosurf® was thoroughly mixed with 300 MBq of Tc-labeled nanocolloid and the animals received a total of 200 mg/kg Curosurf® (80 mg/mL) through an atomization catheter placed inside the oropharyngeal airway. The surfactant atomization procedure was divided in 4 stages (doses): each stage consisted in the delivery of one fourth of the total surfactant dose with the piglet breathing spontaneously on nasal-CPAP (via special “snout-mask”, see details in methods), followed by 5 minutes of PS-ventilation with PEEP (via snout-mask) to avoid atelectasis and promote delivery of the surfactant to the lower airways. When all the surfactant had been delivered, the oropharyngeal cannula was removed and the piglet received PS-ventilation for 15 min. FiO2 was adjusted to maintain saturation above 85%. To secure the airway under transportation to the gamma camera and scintigraphy, the animals were endotracheally intubated and manually ventilated with a Laerdal Silicone Resuscitator.
The piglets were premedicated with i.m. ketamine, midazolam, and atropine, an ear vein was cannulated, and the animals were sedated with a continuous iv. infusion of dexmedetomedine and ketamine. Sedation was supplemented with small intermittent boluses of iv. propofol when needed. An arterial catheter was placed in the femoral artery under local anaesthesia. Invasive blood pressure, pulse oximetry, cerebral oximetry (INVOS), and the diaphragmatic electrical activity (NAVA catheter) were monitored in all animals.
Group-assignment was random, and arranged so that pigs from the same litter were distributed evenly among the groups, when possible. […]

## poractant alfa [Curosurf]
  amount of surfactant deposited into the lung compartment: more than 61%
200 mg/kg
  percentage of surfactant deposited, pharynx (mean): 11.1 percentage
  percentage of surfactant deposited, trachea (mean): 13.5 percentage
